Data on 19 molecules can be found in patent US10233184B2, “7-substituted sulfonimidoylpurinone compounds and derivatives for the treatment and prophylaxis of virus infection” (Hoffmann-La Roche Inc., priority 2016, dated 2019).

Converted amounts (≈) assume the structure as drawn.

Data set [1] is described as follows: LYSA solubility study. The note with it: for solubility thermodynamic: phosphate buffer, pH 6.5, aqueous buffer, thermodynamic from solid, 0.05M phosphate buffer pH 6.5, read-out: LYSA of Prodrugs; for LYSA of Prodrugs: aqueous solubility, 0.05M phosphate buffer pH 6.5. The data set is classed as physicochemical. How it is done: LYSA study is used to determine the aqueous solubility of tested compounds. Samples were prepared in duplicate from 10 mM DMSO stock solution. After evaporation of DMSO with a centrifugal vacuum evaporator, the compounds were dissolved in 0.05M phosphate buffer (pH 6.5), stirred for one hour and shaken for two hours. After one night, the solutions were filtered using a microtiter filter plate. Then the filtrate and its 1/10 dilution were analyzed by HPLC-UV. […] The results were in μg/mL. In case the percentage of sample measured in solution after evaporation divided by the calculated maximum of sample amount was bigger than 80%, the solubility was reported as bigger than this value.

The target of data set [2] is T1, human TLR7 (Homo sapiens, UniProt Q9NYK1).
T1 sequence (Q9NYK1 27-1049): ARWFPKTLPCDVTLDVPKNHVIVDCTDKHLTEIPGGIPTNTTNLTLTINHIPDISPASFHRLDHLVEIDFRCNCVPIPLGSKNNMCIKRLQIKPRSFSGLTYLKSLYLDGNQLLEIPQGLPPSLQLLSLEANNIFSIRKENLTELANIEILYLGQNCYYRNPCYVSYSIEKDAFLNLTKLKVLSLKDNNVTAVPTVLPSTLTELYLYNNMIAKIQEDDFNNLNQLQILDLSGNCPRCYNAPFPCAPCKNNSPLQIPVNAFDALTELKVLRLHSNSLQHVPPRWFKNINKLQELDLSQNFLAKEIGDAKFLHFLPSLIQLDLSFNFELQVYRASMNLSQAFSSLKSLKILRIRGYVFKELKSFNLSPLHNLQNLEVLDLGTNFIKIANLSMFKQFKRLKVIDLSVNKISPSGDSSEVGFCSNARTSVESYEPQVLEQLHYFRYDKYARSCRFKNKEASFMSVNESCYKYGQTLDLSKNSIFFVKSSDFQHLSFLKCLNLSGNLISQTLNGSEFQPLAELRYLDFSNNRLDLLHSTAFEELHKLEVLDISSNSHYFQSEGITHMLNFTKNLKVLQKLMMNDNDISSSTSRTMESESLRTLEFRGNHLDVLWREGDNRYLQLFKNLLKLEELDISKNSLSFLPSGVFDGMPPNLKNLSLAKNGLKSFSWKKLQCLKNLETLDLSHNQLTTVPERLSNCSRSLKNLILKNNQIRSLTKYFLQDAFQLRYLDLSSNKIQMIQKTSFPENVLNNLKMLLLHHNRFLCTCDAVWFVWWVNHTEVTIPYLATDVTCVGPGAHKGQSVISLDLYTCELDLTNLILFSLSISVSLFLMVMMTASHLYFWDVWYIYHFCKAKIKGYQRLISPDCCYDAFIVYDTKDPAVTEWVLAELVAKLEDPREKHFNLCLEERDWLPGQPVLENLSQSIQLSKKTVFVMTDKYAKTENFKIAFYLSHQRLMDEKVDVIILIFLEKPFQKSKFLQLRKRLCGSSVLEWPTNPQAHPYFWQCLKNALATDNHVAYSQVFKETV
The data set is described as follows: HEK293-Blue-hTLR-7 cells assay (SEAP reporter). The class given is cell-based. The conditions noted are these: for Ratio (EC50(prodrug)/EC50(active form)): EC50 of prodrug over EC50 of corresponding active form; for EC50: HEK293-Blue-hTLR-7 cells, SEAP reporter, 20 hrs, prodrug, read-out: HEK293-hTLR-7 EC50 (Prodrug). From the text:
HEK293-Blue-hTLR-7 Cells Assay:
A stable HEK293-Blue-hTLR-7 cell line was purchased from InvivoGen (Cat.#: hkb-htlr7, San Diego, Calif., USA). These cells were designed for studying the stimulation of human TLR7 by monitoring the activation of NF-κB. A SEAP (secreted embryonic alkaline phosphatase) reporter gene was placed under the control of the IFN-β minimal promoter fused to five NF-κB and AP-1-binding sites. The SEAP was induced by activating NF-κB and AP-1 via stimulating HEK-Blue hTLR7 cells with TLR7 ligands. Therefore the reporter expression was regulated by the NF-κB promoter upon stimulation of human TLR7 for 20 hrs. The cell culture supernatant SEAP reporter activity was determined using QUANTI-Blue™ kit (Cat.#: rep-qbl, Invivogen, San Diego, Calif., USA) at a wavelength of 640 nm, a detection medium that turns purple or blue in the presence of alkaline phosphatase.
HEK293-Blue-hTLR7 cells were incubated at a density of 250,000˜450,000 cells/mL in a volume of 180 μL in a 96-well plate in Dulbecco's Modified Eagle's medium (DMEM) containing 4.5 g/L glucose, 50 U/mL penicillin, […], […], 2 mM L-glutamine, 10% (V/V) heat-inactivated fetal bovine serum for 24 hrs. Then the HEK293-Blue-hTLR-7 cells were incubated with addition of 20 μL test compound in a serial dilution in the presence of final DMSO at 1% and perform incubation under 37° C. in a CO2 incubator for 20 hrs. Then 20 μL of the supernatant from each well was incubated with 180 μL Quanti-blue substrate solution at 37° C. for 2 hrs and the absorbance was read at 620˜655 nm using a spectrophotometer. The signalling pathway that TLR7 activation leads to downstream NF-κB activation has been widely accepted, and therefore similar reporter assay was also widely used for evaluating TLR7 agonist (Tsuneyasu Kaisho and Takashi Tanaka, Trends in Immunology, Volume 29, Issue 7, July 2008, […]; Hiroaki Hemmi et al, Nature Immunology 3, 196-200 (2002)).
The Compounds and Examples of the present invention were tested in HEK293-hTLR-7 assay for their TLR7 agonism activity as described herein and results are listed in Table 1. […] The calculated ratio of EC50(prodrug)/EC50(active form) were within the range from 32 to about 7600.

What is called EC50 is the concentration at which the effect is half-maximal. With `CCCS(=N)(=O)c1nc(N)c2c(n1)n(Cc1ccccc1)c(=O)n2C(=O)N1CCC1` (centres unmarked) [Example 9, 6-Amino-7-(azetidine-1-carbonyl)-9-benzyl-2-(propylsulfonimidoyl)purin-8-one], the solubility thermodynamic in data set [1] was > 520 µg/mL. Moreover, in data set [2], the “Ratio (EC50(prodrug)/EC50(active form))” value amounted to 295.4 and the EC50 was 19.2 µM.

Consider `CCCN(C)C(=O)n1c(=O)n(Cc2ccccc2)c2nc(S(=N)(=O)CCC)nc(N)c21` (centres unmarked) [Example 1, 6-Amino-9-benzyl-N-methyl-8-oxo-N-propyl-2-(propylsulfonimidoyl)purine-7-carboxamide], for which the solubility thermodynamic in data set [1] is 290 µg/mL (≈ 651 µM). In addition, in data set [2], the “Ratio (EC50(prodrug)/EC50(active form))” value came out at 775.4 and the EC50 was 50.4 µM.

For `CCCN(C)C(=O)n1c(=O)n(Cc2ccc(F)cc2)c2nc(S(=N)(=O)CC)nc(N)c21` (single isomer, unassigned) [Example 45-A], in data set [1], the solubility thermodynamic was > 560 µg/mL. Also, the EC50 in data set [2] stood at 153 µM.

In the case of `CCCS(=N)(=O)c1nc(N)c2c(n1)n(Cc1ccccc1)c(=O)n2C(=O)N(C)CCN(C)C(C)=O` (centres unmarked) [Example 25, N-[2-[Acetyl(methyl)amino]ethyl]-6-amino-9-benzyl-N-methyl-8-oxo-2-(propylsulfonimidoyl)purine-7-carboxamide], the solubility thermodynamic in data set [1] is > 670 µg/mL. In addition, in data set [2], the “Ratio (EC50(prodrug)/EC50(active form))” value is reported as 372.3 and the EC50 was 24.2 µM.

With `CCCN(C)C(=O)n1c(=O)n(Cc2ccc(Br)cc2)c2nc([S@@](=N)(=O)CC)nc(N)c21` (single isomer, unassigned) [Example 47-B], the solubility thermodynamic in data set [1] turned out to be 128 µg/mL (≈ 251 µM). In addition, in data set [2], the EC50 worked out at 13.1 µM.

For the molecule `CCN(C)C(=O)n1c(=O)n(Cc2ccc(F)cc2)c2nc(S(=N)(=O)CC)nc(N)c21` (single isomer, unassigned) [Example 46-B], the “LYSA of Prodrugs” value in data set [1] is >580 µg/mL. In data set [2], the EC50 turned out to be 45.7 µM.

With `CCCS(=N)(=O)c1nc(N)c2c(n1)n(Cc1ccccc1)c(=O)n2C(=O)N(C)CCOC` (centres unmarked) [Example 2, 6-Amino-9-benzyl-N-(2-methoxyethyl)-N-methyl-8-oxo-2-(propylsulfonimidoyl)purine-7-carboxamide], the solubility thermodynamic in data set [1] stood at 615 µg/mL (≈ 1330 µM). Moreover, in data set [2], the “Ratio (EC50(prodrug)/EC50(active form))” value is on record as 372.1 and the EC50 came to 32 µM.

As to `CCCS(=N)(=O)c1nc(N)c2c(n1)n(Cc1ccccc1)c(=O)n2C(=O)N(C)CCC(=O)OC(C)(C)C` (centres unmarked) [Example 16, tert-Butyl 3-[[6-amino-9-benzyl-8-oxo-2-(propylsulfonimidoyl)purine-7-carbonyl]-methyl-amino]propanoate], the solubility thermodynamic in data set [1] is 205 µg/mL (≈ 386 µM). Also, in data set [2], the “Ratio (EC50(prodrug)/EC50(active form))” value came out at 493.8 and the EC50 was 32.1 µM.

Turning to `CCCS(=N)(=O)c1nc(N)c2c(n1)n(Cc1ccccc1)c(=O)n2C(=O)N(CC)CCOC` (centres unmarked) [Example 5, 6-Amino-9-benzyl-N-ethyl-N-(2-methoxyethyl)-8-oxo-2-(propylsulfonimidoyl)purine-7-carboxamide], in data set [1], the solubility thermodynamic was > 595 µg/mL. Also, in data set [2], the “Ratio (EC50(prodrug)/EC50(active form))” value is listed as 630.8 and the EC50 was determined as 41 µM.

In the case of `CCCN(C)C(=O)n1c(=O)n(Cc2ccc(C)cc2)c2nc([S@@](=N)(=O)CC)nc(N)c21` (single isomer, unassigned) [Example 43-B], in data set [1], the solubility thermodynamic was 170 µg/mL (≈ 382 µM). Further, in data set [2], the “Ratio (EC50(prodrug)/EC50(active form))” value came to 2240 and the EC50 worked out at 78.4 µM.

In the case of `CCN(C)C(=O)n1c(=O)n(Cc2ccc(F)cc2)c2nc(S(=N)(=O)CC)nc(N)c21` (single isomer, unassigned) [Example 46-A], the “LYSA of Prodrugs” value in data set [1] turned out to be 205 µg/mL. In addition, the EC50 in data set [2] was found to be 45.5 µM.

On to `CCCN(C)C(=O)n1c(=O)n(Cc2ccc(F)cc2)c2nc([S@@](=N)(=O)CC)nc(N)c21` (single isomer, unassigned) [Example 45-B], for which, in data set [1], the solubility thermodynamic amounted to 420 µg/mL (≈ 934 µM). Besides, in data set [2], the EC50 is > 1000 µM.

In the case of `CCCS(=N)(=O)c1nc(N)c2c(n1)n(Cc1ccccc1)c(=O)n2C(=O)N(C)CCN(C)C(=O)OCC` (centres unmarked) [Example 28, Ethyl N-[2-[[6-amino-9-benzyl-8-oxo-2-(propylsulfonimidoyl)purine-7-carbonyl]-methyl-amino]ethyl]-N-methyl-carbamate], the solubility thermodynamic in data set [1] was determined as 695 µg/mL (≈ 1300 µM). Further, in data set [2], the “Ratio (EC50(prodrug)/EC50(active form))” value came out at 106.2 and the EC50 worked out at 6.9 µM.

Turning to `CCCS(=N)(=O)c1nc(N)c2c(n1)n(Cc1ccccc1)c(=O)n2C(=O)N(C)CCOC` (single isomer, unassigned) [Example 2-A], the solubility thermodynamic in data set [1] was > 600 µg/mL. For the same molecule, in data set [2], the “Ratio (EC50(prodrug)/EC50(active form))” value is recorded as 43.0 and the EC50 worked out at 3.7 µM.

Consider `CCCCN(CC)C(=O)n1c(=O)n(Cc2ccccc2)c2nc(S(=N)(=O)CCC)nc(N)c21` (centres unmarked) [Example 6, 6-Amino-9-benzyl-N-butyl-N-ethyl-8-oxo-2-(propylsulfonimidoyl)purine-7-carboxamide], for which, in data set [1], the solubility thermodynamic came out at 140 µg/mL (≈ 296 µM). Further, in data set [2], the “Ratio (EC50(prodrug)/EC50(active form))” value was 1266.2 and the EC50 was found to be 82.3 µM.

Consider `CCCS(=N)(=O)c1nc(N)c2c(n1)n(Cc1ccccc1)c(=O)n2C(=O)N1CCN(C)CC1` (centres unmarked) [Example 11, 6-Amino-9-benzyl-7-(4-methylpiperazine-1-carbonyl)-2-(propylsulfonimidoyl)purin-8-one], for which, in data set [1], the solubility thermodynamic is > 618 µg/mL. In data set [2], the “Ratio (EC50(prodrug)/EC50(active form))” value came out at 86.2 and the EC50 was determined as 5.6 µM.

Take `CCCCN(C)C(=O)OCCN(C)C(=O)n1c(=O)n(Cc2ccccc2)c2nc(S(=N)(=O)CCC)nc(N)c21` (centres unmarked) [Example 29, 2-[[6-Amino-9-benzyl-8-oxo-2-(propylsulfonimidoyl)purine-7-carbonyl]-methyl-amino]ethyl N-butyl-N-methyl-carbamate]: the solubility thermodynamic in data set [1] was found to be 395 µg/mL (≈ 705 µM). In data set [2], the “Ratio (EC50(prodrug)/EC50(active form))” value turned out to be 750.8 and the EC50 was 48.8 µM.

As for `CCN(C)C(=O)n1c(=O)n(Cc2ccc(Br)cc2)c2nc(S(=N)(=O)CC)nc(N)c21` (single isomer, unassigned) [Example 48-A], the solubility thermodynamic in data set [1] worked out at 305 µg/mL (≈ 614 µM). In addition, the EC50 in data set [2] was 18.3 µM.

Take `CCCN(CC)C(=O)n1c(=O)n(Cc2ccccc2)c2nc(S(=N)(=O)CCC)nc(N)c21` (centres unmarked) [Example 3, 6-Amino-9-benzyl-N-ethyl-8-oxo-N-propyl-2-(propylsulfonimidoyl)purine-7-carboxamide]: in data set [1], the solubility thermodynamic is 240 µg/mL (≈ 522 µM). In data set [2], the EC50 came to 15.1 µM.
